Results reported in the supplement of paper PMC11061612.

Assays:
Assay in all cases: combination Emax (second highest fraction inhibited in the dose matrix, 72 h); higher = more inhibition; extreme values may be limits of the assay
[1] = system: LCLC-103H (Non-Small Cell Lung Carcinoma)
Outline: (§1)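 Cell lines in DMEM/F12 or RPMI with 10% FBS were plated in 1536-well plates, held 24 hours at 37°C, 5% CO2, then given two-drug dose matrices for 72 hours (DMSO typically 0.2%). Viability was read by CellTiter-Glo 2.0 luminescence and scaled as inhibition from 0 (vehicle wells) to 1 (blank wells). Combination Emax is the second-highest inhibition in the matrix; Bliss excess is observed combination effect minus expected EA + EB − EA·EB, EA and EB being single-agent effects.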

[2] = system: COR-L88 (Small Cell Lung Carcinoma)
Outline: as §1

[3] = system: CPC-N (Small Cell Lung Carcinoma)
Outline: as §1

[4] = system: LS-1034 (Colorectal Carcinoma)
Outline: as §1

[5] = system: HT-1080 (Other Solid Carcinomas)
Outline: as §1

[6] = system: C-33-A (Cervical Carcinoma)
Outline: as §1

[7] = system: NCI-H3118 (Head and Neck Carcinoma)
Outline: as §1

AM-38 (Glioblastoma) = system: AM-38 (Glioblastoma)
Outline: as §1

[8] = system: SCC-4 (Oral Cavity Carcinoma)
Outline: as §1

[9] = system: SAT (Head and Neck Carcinoma)
Outline: as §1

[10] = system: KP-4 (Pancreatic Carcinoma)
Outline: as §1

SK-N-SH (Neuroblastoma) = system: SK-N-SH (Neuroblastoma)
Outline: as §1

UACC-257 (Melanoma) = system: UACC-257 (Melanoma)
Outline: as §1

[11] = system: BHT-101 (Thyroid Gland Carcinoma)
Outline: as §1

NCI-H226 (Mesothelioma) = system: NCI-H226 (Mesothelioma)
Outline: as §1

[12] = system: BxPC-3 (Pancreatic Carcinoma)
Outline: as §1

[13] = system: SNU-C2B (Colorectal Carcinoma)
Outline: as §1

[14] = system: OVCAR-3 (Ovarian Carcinoma)
Outline: as §1

[15] = system: IA-LM (Non-Small Cell Lung Carcinoma)
Outline: as §1

[16] = system: MOLP-8 (Plasma Cell Myeloma)
Outline: as §1

Row | SMILES | combination Emax [1] | combination Emax [2] | combination Emax [3] | combination Emax [4] | combination Emax [5] | combination Emax [6] | combination Emax [7] | combination Emax (AM-38 (Glioblastoma)) | combination Emax [8] | combination Emax [9] | combination Emax [10] | combination Emax (SK-N-SH (Neuroblastoma)) | combination Emax (UACC-257 (Melanoma)) | combination Emax [11] | combination Emax (NCI-H226 (Mesothelioma)) | combination Emax [12] | combination Emax [13] | combination Emax [14] | combination Emax [15] | combination Emax [16]
1 | CC1(C)CCC(CN2CCN(c3ccc(C(=O)NS(=O)(=O)c4ccc(NCC5CCOCC5)c([N+](=O)[O-])c4)c(Oc4cnc5[nH]ccc5c4)c3)CC2)=C(c2ccc(Cl)cc2)C1 [Venetoclax] + CCN(CCO)CCCOc1ccc2c(Nc3cc(CC(=O)Nc4cccc(F)c4)[nH]n3)ncnc2c1 [AZD2811] (first compound max 1 µM, 7x7, partner max 1 µM) | 0.333 | 0.667 | 0.942 | 0.114 | 0.27 | 0.312 | 0.207 | 0.221 | 0.429 | 0.187 | 0.322 | 0.73 | 0.226 | 0.157 | 0.158 | 0.365 | 0.185 | 0.194 | 0.249 | 0.406
2 | CN(CCO)CC[C@H](CSc1ccccc1)Nc1ccc(S(=O)(=O)NC(=O)c2ccc(N3CCC([C@@H](O)c4ccccc4-c4ccc(Cl)cc4)CC3)cc2)cc1S(=O)(=O)C(F)(F)F [AZD4320] + C[C@@H]1COCCN1C2=NC(=NC(=C2)C3(CC3)[S@](=N)(=O)C)C4=C5C=CNC5=NC=C4 [AZD6738] (first compound max 1 µM, 7x7, partner max 10 µM) | 0.546 | 0.992 | 1 | 0.721 | 0.656 | 0.928 | 0.765 | 0.95 | 0.872 | 0.587 | 0.487 | 0.988 | 0.186 | 0.877 | 0.193 | 0.751 | 0.636 | 0.555 | 0.715 | 0.787
3 | COc1nnc2ccc(N3CCC(c4ccc(OCCN5CCN(C)C(=O)[C@H]5C)cc4)CC3)nn12 [AZD5153] + Cc1c2c(nn1C)CSCc1cc(n(C)n1)CSc1cc(c3ccccc3c1)OCCCc1c(C(=O)O)n(C)c3c-2c(Cl)ccc13 [AZD5991] (first compound max 1 µM, 7x7, partner max 1 µM) | 0.414 | 0.807 | 0.751 | 0.491 | 0.378 | 0.644 | 0.678 | 0.295 | 0.775 | 0.914 | 0.76 | 0.526 | 0.501 | 0.84 | 0.407 | 0.463 | 0.568 | 0.632 | 0.483 | 1
4 | CC1(C)CCC(CN2CCN(c3ccc(C(=O)NS(=O)(=O)c4ccc(NCC5CCOCC5)c([N+](=O)[O-])c4)c(Oc4cnc5[nH]ccc5c4)c3)CC2)=C(c2ccc(Cl)cc2)C1 [Venetoclax] + COc1cc(Nc2ncc3c(n2)-c2ccc(Cl)cc2C(c2c(F)cccc2OC)=NC3)ccc1C(=O)O [Alisertib] (first compound max 1 µM, 7x7, partner max 10 µM) | 0.539 | 0.727 | 0.835 | 0.227 | 0.299 | 0.446 | 0.312 | 0.41 | 0.571 | 0.545 | 0.44 | 0.902 | 0.191 | 0.672 | 0.224 | 0.226 | 0.291 | 0.394 | 0.617 | 0.633
5 | C[C@@H](c1ccc2nccn2c1)n1nnc2ncc(-c3cnn(C)c3)nc21 [Savolitinib] + CC1(C)CCC(CN2CCN(c3ccc(C(=O)NS(=O)(=O)c4ccc(NCC5CCOCC5)c([N+](=O)[O-])c4)c(Oc4cnc5[nH]ccc5c4)c3)CC2)=C(c2ccc(Cl)cc2)C1 [Venetoclax] (first compound max 1 µM, 7x7, partner max 1 µM) | 0.146 | 0.207 | 0.203 | 0.0816 | 0.0906 | 0.0882 | 0.115 | 0.0558 | 0.101 | 0.151 | 0.453 | 0.32 | 0.104 | 0.14 | 0.17 | 0.216 | 0.0589 | 0.0969 | 0.197 | 0.0876
6 | Cc1c2c(nn1C)CSCc1cc(n(C)n1)CSc1cc(c3ccccc3c1)OCCCc1c(C(=O)O)n(C)c3c-2c(Cl)ccc13 [AZD5991] + Cn1cnc2c(F)c(Nc3ccc(Br)cc3Cl)c(C(=O)NOCCO)cc21 [Selumetinib] (first compound max 1 µM, 7x7, partner max 3 µM) | 0.176 | 0.17 | 0.237 | 0.587 | 0.428 | 0.365 | 0.481 | 0.709 | 0.839 | 0.803 | 0.226 | 0.414 | 0.817 | 0.913 | 0.224 | 0.483 | 0.356 | 0.218 | 0.24 | 1
7 | Cc1nc(Nc2ncc(C(=O)Nc3c(C)cccc3Cl)s2)cc(N2CCN(CCO)CC2)n1 [Dasatinib] + CC(=O)Nc1cccc(-n2c(=O)n(C3CC3)c(=O)c3c(Nc4ccc(I)cc4F)n(C)c(=O)c(C)c32)c1 [Trametinib] (first compound max 2 µM, 7x7, partner max 1 µM) | 0.326 | 0.2 | 0.0279 | 0.861 | 0.61 | 0.642 | 0.811 | 0.713 | 0.712 | 0.826 | 0.735 | 0.476 | 0.644 | 0.998 | 0.458 | 0.868 | 0.66 | 0.494 | 0.654 | 0.621
8 | CC1(C)CCC(CN2CCN(c3ccc(C(=O)NS(=O)(=O)c4ccc(NCC5CCOCC5)c([N+](=O)[O-])c4)c(Oc4cnc5[nH]ccc5c4)c3)CC2)=C(c2ccc(Cl)cc2)C1 [Venetoclax] + Cn1cnc2c(F)c(Nc3ccc(Br)cc3Cl)c(C(=O)NOCCO)cc21 [Selumetinib] (first compound max 1 µM, 7x7, partner max 3 µM) | 0.115 | 0.543 | 0.734 | 0.537 | 0.316 | 0.324 | 0.294 | 0.498 | 0.164 | 0.566 | 0.131 | 0.553 | 0.621 | 0.686 | 0.0891 | 0.323 | 0.27 | 0.126 | 0.175 | 0.186
9 | CC(=O)Nc1cccc(-n2c(=O)n(C3CC3)c(=O)c3c(Nc4ccc(I)cc4F)n(C)c(=O)c(C)c32)c1 [Trametinib] + Cc1nc(-c2cn3c(n2)-c2ccc(-c4cnn(C(C)(C)C(N)=O)c4)cc2OCC3)n(C(C)C)n1 [Taselisib] (first compound max 1 µM, 7x7, partner max 10 µM) | 0.539 | 0.154 | 0.362 | 0.787 | 0.628 | 0.669 | 0.966 | 0.909 | 0.992 | 0.941 | 0.694 | 0.827 | 0.806 | 1 | 0.327 | 1 | 0.676 | 0.652 | 0.486 | 1
10 | COc1cccc(OCCCN)c1-c1cc(Nc2cnc(C#N)cn2)n[nH]1 [Prexasertib] + C[C@@H]1COCCN1C2=NC(=NC(=C2)C3(CC3)[S@](=N)(=O)C)C4=C5C=CNC5=NC=C4 [AZD6738] (first compound max 1 µM, 7x7, partner max 10 µM) | 0.738 | 0.833 | 1 | 0.71 | 0.534 | 0.913 | 0.816 | 0.847 | 0.676 | 0.552 | 0.536 | 0.901 | 0.33 | 0.78 | 0.176 | 0.633 | 0.649 | 0.773 | 0.459 | 0.891
11 | NC1(C(=O)N[C@@H](CCO)c2ccc(Cl)cc2)CCN(c2ncnc3[nH]ccc23)CC1 [Capivasertib] + CC(C)n1c(=O)n(C)c2cnc3cc(F)c(-c4ccc(OCCCN5CCCCC5)nc4)cc3c21 [AZD1390] (first compound max 10 µM, 7x7, partner max 0.3 µM) | 0.267 | 0.0851 | 0.399 | 0.322 | 0.194 | 0.675 | 0.247 | 0.17 | 0.227 | 0.555 | 0.355 | 0.349 | 0.26 | 0.341 | 0.335 | 0.181 | 0.303 | 0.227 | 0.263 | 0.452
12 | Cc1c2c(nn1C)CSCc1cc(n(C)n1)CSc1cc(c3ccccc3c1)OCCCc1c(C(=O)O)n(C)c3c-2c(Cl)ccc13 [AZD5991] + Cc1cc2ncnn2cc1Nc1ncc2c(n1)n(C1CCOCC1)c(=O)n2C [AZD7648] (first compound max 1 µM, 7x7, partner max 10 µM) | 0.363 | 0.297 | 0.245 | 0.272 | 0.179 | 0.416 | 0.308 | 0.615 | 0.458 | 0.664 | 0.263 | 0.481 | 0.244 | 0.599 | 0.203 | 0.231 | 0.158 | 0.272 | 0.295 | 1
